“Also recorded” adds a separate entry of the source. Read-outs that look alike come from different tables or passages of the source.
What was measured:
FaDu oral cancer cells = test: MTT antiproliferative assay, FaDu; type: cell-based; conditions: for GI50: Homo sapiens, FaDu, read-out: GI50 for FaDu
Procedure: (§1) FaDu cell line was cultured in RPMI-1640 medium containing L-glutamine (300 mg/L) and sodium bicarbonate (2 g/L), while Cal27, HEK293 and HFF-1 cell lines were cultured in DMEM medium containing glucose (4.5 g/L), L-glutamine (584 mg/L) and sodium bicarbonate (3.7 g/L). For gene expression and qPCR studies, RNA isolation was performed using Trizol (Thermo). The reagents and the primer sequences employed for the qPCR assays have been described previously ([Chakraborty et al., 2022]).
(§2) The hits derived from the docking study were sourced from either commercial suppliers or pre-existing compounds within our laboratory or were synthesized anew. The FaDu and Cal27 oral cancer cells were treated with the compounds for 72 h at concentrations of 3, 10, 30, and 100 μM. A post-treatment MTT assay was done to evaluate their antiproliferative activity. Table S2 represents the anti-proliferative and enzyme inhibitory activity of the compounds obtained as hits from the structure-based drug design strategy. […] Consequently, 50 μM of all the hit compounds were evaluated for their HK2 enzyme inhibitory activity. 50 μM of compounds were incubated with HK2 protein and the rate of reaction was assessed in kinetic mode (rate of conversion of NAD to NADH). The choice of 50 μM concentration was based primarily on MTT assays and GI50 calculation. The average GI50 values of the hit compounds against less sensitive FaDu cell line was approximately 50 μM. Considering this information, we reasoned that utilizing a concentration equivalent to the average GI50 would allow us to assess the maximum inhibitory effect of the compounds on HK2 enzyme activity. […] The same compounds have been previously reported by our team to have EGFR phosphorylation inhibitory potential and were coded as H2 (compound 14) and H10 (compound 11) ([Chakraborty et al., 2022]). […] Figures 1C,D show the lead compounds H2 and H10 at the active site of HK2 enzyme interacting via H-bonds with the amino acid residues.

Cal27 cells = test: 2-NBDG glucose uptake assay (flow cytometry), Cal27; type: cell-based; conditions: Cal27, 10 μM and 30 μM, 72 h, vs DMSO control
Procedure: (§3) FaDu and Cal27 cells were treated with test compounds (0.2 million cells per treatment) and were incubated for 1 h with 100 μM of 2-NBDG (Invitrogen, N13195), in glucose free medium, washed with ice-cold PBS, and re-suspended in 500 μL of PBS and maintained on ice to perform flow cytometric analyses within 30 min. The mean fluorescent intensity (MFI) readout reflects the amount of fluorescent glucose analog taken up by the cells, providing insight into their glucose uptake capacity. The percent (%) cell population positive for glucose uptake (shown with a right shift of the histogram peaks) were also plotted for both the cell lines. For MMP analysis, cells were incubated with 200 nM of TMRE (Invitrogen, T669) for 30 min. For each measurement, data was collected for 10,000 events using a BD FACS Aria III (Becton Dickinson, San Jose, CA) instrument.
(§4) 2-[N-(7-Nitrobenz-2-oxa-1,3-diaxol-4-yl) amino]-2-deoxyglucose (2-NBDG) uptake into cells happens via glucose transporters and post uptake 2-NBDG gets phosphorylated by hexokinases. Since cancer cells represent higher glycolytic activity, the inhibition of HK2 activity in cancer cells is actively reflected in the inhibition of 2-NBDG uptake ([Hung et al., 2022]; [Li et al., 2022]). […] In this assay, the MFI of intracellular 2-NBDG serves as a quantitative measure of cellular glucose uptake. […] This finding is further supported by the increased % population of 2-NBDG positive cells in Cal27 cells compared to FaDu cells (Figure 3).

HK2 [1] = biological target: T1, HK2 (Homo sapiens, UniProt P52789); test: HK2 enzyme inhibition assay (Abcam kit ab211114); type: biochemical; conditions: read-out: % inhibition of HK2 enzyme activity at 50 µM
T1 construct: purchased Abcam ab211114
T1 sequence (P52789 1-917): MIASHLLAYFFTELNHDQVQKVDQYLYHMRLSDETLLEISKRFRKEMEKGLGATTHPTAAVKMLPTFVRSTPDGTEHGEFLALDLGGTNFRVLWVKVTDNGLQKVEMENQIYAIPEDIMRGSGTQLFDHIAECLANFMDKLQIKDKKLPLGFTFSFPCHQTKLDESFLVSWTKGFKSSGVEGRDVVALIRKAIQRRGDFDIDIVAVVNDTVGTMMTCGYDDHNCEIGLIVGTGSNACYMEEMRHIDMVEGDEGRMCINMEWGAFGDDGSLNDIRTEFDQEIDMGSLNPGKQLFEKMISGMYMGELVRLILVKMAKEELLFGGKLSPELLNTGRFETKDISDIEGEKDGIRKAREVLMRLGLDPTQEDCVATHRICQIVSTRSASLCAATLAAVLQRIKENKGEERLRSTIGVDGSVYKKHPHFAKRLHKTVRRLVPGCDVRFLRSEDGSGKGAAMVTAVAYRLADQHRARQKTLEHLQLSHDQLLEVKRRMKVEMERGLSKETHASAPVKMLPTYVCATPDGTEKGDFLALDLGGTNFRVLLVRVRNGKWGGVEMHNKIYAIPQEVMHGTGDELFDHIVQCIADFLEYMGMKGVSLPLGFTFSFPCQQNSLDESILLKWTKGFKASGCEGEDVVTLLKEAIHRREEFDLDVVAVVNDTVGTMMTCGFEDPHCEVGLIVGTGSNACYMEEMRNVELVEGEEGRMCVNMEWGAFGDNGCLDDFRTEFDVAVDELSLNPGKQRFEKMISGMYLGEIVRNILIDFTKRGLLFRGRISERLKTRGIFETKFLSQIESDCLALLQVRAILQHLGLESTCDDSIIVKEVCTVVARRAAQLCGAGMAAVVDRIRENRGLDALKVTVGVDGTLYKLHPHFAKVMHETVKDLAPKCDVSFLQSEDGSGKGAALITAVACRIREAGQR
Procedure: The HK2 enzyme inhibition assay was performed using an HK2 inhibitor assay kit (Abcam, ab211114) according to the manufacturer’s instructions. Initially, 50 µM compound concentration was used to perform the enzyme activity inhibition studies, after which IC50 of the top leads were determined.
as §2

HK2 [2] = biological target: T1, HK2; conditions: ref Liu and Liu, 2022; read-out: IC50 as reported against HK2; cited from earlier work
Cal27 oral cancer cells = test: MTT antiproliferative assay, Cal27; type: cell-based; conditions: Homo sapiens, read-out: GI50 for Cal27
Procedure: as §1, §2

FaDu cells = test: 2-NBDG glucose uptake assay (flow cytometry), FaDu; type: cell-based; conditions: 10 μM and 30 μM, 72 h, vs DMSO control
Procedure: as §3, §4

| GI50 (FaDu oral cancer cells; MTT, 72 h treatment, mean ± SEM) [µM] | GI50 (Cal27 oral cancer cells; CAL-27, MTT, 72 h treatment, mean ± SEM) [µM] | Structure (SMILES) | GI50 (FaDu oral cancer cells; 72 h) [µM] | 2-NBDG MFI (Cal27 cells) | inhibition at 50 µM (HK2 [1]) [%] | IC50 (HK2 [2]) [µM] | GI50 (Cal27 oral cancer cells; CAL-27, 72 h) [µM] | 2-NBDG MFI (FaDu cells) | GI50 for FaDu (FaDu oral cancer cells; MTT, 72 h treatment, mean ± SEM, listed as 2-DG) |
| --- | --- | --- | --- | --- | --- | --- | --- | --- | --- |
|  |  | O=C(O)C(=O)CBr [Compound 1, 3-Bromo pyruvic acid] | 23.9 | significant reduction | 88.2 | < 5 | 36.4 | significant reduction |  |
| > 100 | 77.6 | O=CC[C@@H](O)[C@H](O)[C@H](O)CO [Compound 15, 2-Deoxy Glucose] |  | significant reduction |  |  |  | significant reduction | no efficacy; also recorded: limited efficacy |

From article PMC10961359, “Targeting hexokinase 2 for oral cancer therapy: structure-based design and validation of lead compounds” (Frontiers in Pharmacology, 2024)
